Measured values published in PubChem BioAssay AID1259407 (Chemical Carcinogenesis Research Information System (CCRIS), 2018).
Calls of active or inactive are those of the source. The rule behind the calls is not given here.

System: CCRIS mutagenicity, Ames/micronucleus/aberration tests
Test: CCRIS mutagenicity studies
[1] = Test System: AMES SALMONELLA TYPHIMURIUM, Strain/Indicator: TA1537, Metabolic Activation: NONE, Method: STANDARD PLATE
[2] = Test System: AMES SALMONELLA TYPHIMURIUM, Strain/Indicator: TA98, Metabolic Activation: NONE, Method: STANDARD PLATE
[3] = Test System: AMES SALMONELLA TYPHIMURIUM, Strain/Indicator: TA100, Metabolic Activation: NONE, Method: STANDARD PLATE
[4] = Test System: AMES SALMONELLA TYPHIMURIUM, Strain/Indicator: TA1535, Metabolic Activation: NONE, Method: STANDARD PLATE
[5] = Test System: AMES SALMONELLA TYPHIMURIUM, Strain/Indicator: TA100, Metabolic Activation: NONE

CN1C(=O)C(O)CC1c1cccnc1 (configuration not stated)
mutagenic call (Test System: AMES SALMONELLA TYPHIMURIUM, Strain/Indicator: TA98, Metabolic Activation: NONE, Method: PREINCUBATION): inactive; negative
mutagenic call (Test System: AMES SALMONELLA TYPHIMURIUM, Strain/Indicator: TA98, Metabolic Activation: RAT, LIVER, S-9, AROCLOR 1254 (5%), Method: PREINCUBATION): inactive; negative
mutagenic call (Test System: AMES SALMONELLA TYPHIMURIUM, Strain/Indicator: TA100, Metabolic Activation: NONE, Method: PREINCUBATION): inactive; negative
mutagenic call (Test System: AMES SALMONELLA TYPHIMURIUM, Strain/Indicator: TA100, Metabolic Activation: RAT, LIVER, S-9, AROCLOR 1254 (5%), Method: PREINCUBATION): inactive; negative
mutagenic call (Test System: AMES SALMONELLA TYPHIMURIUM, Strain/Indicator: TA1535, Metabolic Activation: NONE, Method: PREINCUBATION): inactive; negative
mutagenic call (Test System: AMES SALMONELLA TYPHIMURIUM, Strain/Indicator: TA1535, Metabolic Activation: RAT, LIVER, S-9, AROCLOR 1254 (5%), Method: PREINCUBATION): inactive; negative
mutagenic call (Test System: AMES SALMONELLA TYPHIMURIUM, Strain/Indicator: TA1537, Metabolic Activation: NONE, Method: PREINCUBATION): inactive; negative
mutagenic call (Test System: AMES SALMONELLA TYPHIMURIUM, Strain/Indicator: TA1537, Metabolic Activation: RAT, LIVER, S-9, AROCLOR 1254 (5%), Method: PREINCUBATION): inactive; negative
mutagenic call (Test System: AMES SALMONELLA TYPHIMURIUM, Strain/Indicator: TA1538, Metabolic Activation: NONE, Method: PREINCUBATION): inactive; negative
mutagenic call (Test System: AMES SALMONELLA TYPHIMURIUM, Strain/Indicator: TA1538, Metabolic Activation: RAT, LIVER, S-9, AROCLOR 1254 (5%), Method: PREINCUBATION): inactive; negative

Oc1ccc(Nc2c3ccccc3nc3ccccc23)cc1
mutagenic call [1]: active; positive

O=[N+]([O-])c1ccc2c(c1)nc(/C=N/OCc1ccccc1[N+](=O)[O-])n2Cc1ccccc1
mutagenic call [2]: active; positive
mutagenic call (Test System: AMES SALMONELLA TYPHIMURIUM, Strain/Indicator: TA98, Metabolic Activation: RAT, LIVER, S-9, PHENOBARBITAL AND BETA-NAPHTHOFLAVONE, Method: STANDARD PLATE): active; positive
mutagenic call [3]: active; positive
mutagenic call (Test System: AMES SALMONELLA TYPHIMURIUM, Strain/Indicator: TA100, Metabolic Activation: RAT, LIVER, S-9, PHENOBARBITAL AND BETA-NAPHTHOFLAVONE, Method: STANDARD PLATE): active; positive

C[C@]1(O)CC[C@H]2[C@@H]3CCC4=CC(=O)CC[C@]4(C)[C@@]3(F)[C@@H](O)C[C@@]21C
mutagenic call (End Point: IN VITRO CHROMOSOMAL ABERRATIONS, Test System: HUMAN PERIPHERAL LYMPHOCYTES, Metabolic Activation: NONE): active; positive after 72 hr treatment at 2 lower doses; positive after 48 or 72 hr trea
mutagenic call (End Point: IN VIVO MICRONUCLEUS, Test System: BONE MARROW POLYCHROMATIC ERYTHROCYTES, Species: MOUSE, Strain/Sex: SWISS ALBINO/MALE, Route: IP): active; positive
mutagenic call (Test System: AMES SALMONELLA TYPHIMURIUM, Strain/Indicator: TA97A, Metabolic Activation: NONE, Method: STANDARD PLATE): inactive; negative; growth inhibition at highest dose
mutagenic call (Test System: AMES SALMONELLA TYPHIMURIUM, Strain/Indicator: TA97A, Metabolic Activation: RAT, LIVER, S-9, PHENOBARBITAL, Method: PREINCUBATION): inactive; negative
mutagenic call [2]: inactive; negative; growth inhibition at highest dose
mutagenic call (Test System: AMES SALMONELLA TYPHIMURIUM, Strain/Indicator: TA98, Metabolic Activation: RAT, LIVER, S-9, PHENOBARBITAL, Method: PREINCUBATION): inactive; negative
mutagenic call [3]: inactive; negative; growth inhibition at highest dose
mutagenic call (Test System: AMES SALMONELLA TYPHIMURIUM, Strain/Indicator: TA100, Metabolic Activation: RAT, LIVER, S-9, PHENOBARBITAL, Method: PREINCUBATION): inactive; negative
mutagenic call (Test System: AMES SALMONELLA TYPHIMURIUM, Strain/Indicator: TA102, Metabolic Activation: NONE, Method: STANDARD PLATE): inactive; negative; growth inhibition at highest dose
mutagenic call (Test System: AMES SALMONELLA TYPHIMURIUM, Strain/Indicator: TA102, Metabolic Activation: RAT, LIVER, S-9, PHENOBARBITAL, Method: PREINCUBATION): inactive; negative
mutagenic call [4]: inactive; negative; growth inhibition at highest dose
mutagenic call (Test System: AMES SALMONELLA TYPHIMURIUM, Strain/Indicator: TA1535, Metabolic Activation: RAT, LIVER, S-9, PHENOBARBITAL, Method: PREINCUBATION): inactive; negative

COc1c(O)c(OC)c(Cl)c(Cl)c1Cl
mutagenic call (Test System: CHINESE HAMSTER V-79, Strain/Indicator: V-79/6-THIOGUANINE, Metabolic Activation: NONE, Method: STANDARD PLATE): inactive; negative

C/C=C/c1cc(OC)c(OC)cc1OC
mutagenic call (Test System: AMES SALMONELLA TYPHIMURIUM, Strain/Indicator: TA97, Metabolic Activation: NONE, Method: STANDARD PLATE): inactive; negative
mutagenic call (Test System: AMES SALMONELLA TYPHIMURIUM, Strain/Indicator: TA97, Metabolic Activation: RAT, LIVER, S-9, AROCLOR 1254, Method: STANDARD PLATE): inactive; negative
mutagenic call [2]: inactive; negative
mutagenic call (Test System: AMES SALMONELLA TYPHIMURIUM, Strain/Indicator: TA98, Metabolic Activation: RAT, LIVER, S-9, AROCLOR 1254, Method: STANDARD PLATE): inactive; negative
mutagenic call [5]: inactive; negative
mutagenic call [3]: inactive; negative
mutagenic call (Test System: AMES SALMONELLA TYPHIMURIUM, Strain/Indicator: TA100, Metabolic Activation: RAT, LIVER, S-9, AROCLOR 1254, Method: STANDARD PLATE): inactive; negative
mutagenic call (Test System: AMES SALMONELLA TYPHIMURIUM, Strain/Indicator: TA100, Metabolic Activation: S-9): active; positive
mutagenic call [4]: active; positive
mutagenic call (Test System: AMES SALMONELLA TYPHIMURIUM, Strain/Indicator: TA1535, Metabolic Activation: RAT, LIVER, S-9, AROCLOR 1254, Method: STANDARD PLATE): inactive; negative
mutagenic call [1]: inactive; negative
mutagenic call (Test System: AMES SALMONELLA TYPHIMURIUM, Strain/Indicator: TA1537, Metabolic Activation: RAT, LIVER, S-9, AROCLOR 1254, Method: STANDARD PLATE): inactive; negative
mutagenic call (Test System: AMES SALMONELLA TYPHIMURIUM, Strain/Indicator: TA1538, Metabolic Activation: NONE, Method: STANDARD PLATE): inactive; negative
mutagenic call (Test System: AMES SALMONELLA TYPHIMURIUM, Strain/Indicator: TA1538, Metabolic Activation: RAT, LIVER, S-9, AROCLOR 1254, Method: STANDARD PLATE): inactive; negative
mutagenic call (Test System: UDS RAT HEPATOCYTES, Strain/Indicator: THY INCORP, Metabolic Activation: NONE, Method: LIQUID SCINTILLATION COUNTING): active; positive

OCC(CO)NC1CC(O)(CO)C(O)C(O)C1O (configuration not stated)
mutagenic call (Test System: AMES SALMONELLA TYPHIMURIUM, Strain/Indicator: TA98, Metabolic Activation: NONE): inactive; negative
mutagenic call (Test System: AMES SALMONELLA TYPHIMURIUM, Strain/Indicator: TA98, Metabolic Activation: RAT, LIVER, S-9, SODIUM PHENOBARBITAL AND 5,6-BENZOFLAVONE): inactive; negative
mutagenic call [5]: inactive; negative
mutagenic call (Test System: AMES SALMONELLA TYPHIMURIUM, Strain/Indicator: TA100, Metabolic Activation: RAT, LIVER, S-9, SODIUM PHENOBARBITAL AND 5,6-BENZOFLAVONE): inactive; negative
mutagenic call (Test System: AMES SALMONELLA TYPHIMURIUM, Strain/Indicator: TA1535, Metabolic Activation: NONE): inactive; negative
mutagenic call (Test System: AMES SALMONELLA TYPHIMURIUM, Strain/Indicator: TA1535, Metabolic Activation: RAT, LIVER, S-9, SODIUM PHENOBARBITAL AND 5,6-BENZOFLAVONE): inactive; negative
mutagenic call (Test System: AMES SALMONELLA TYPHIMURIUM, Strain/Indicator: TA1537, Metabolic Activation: NONE): inactive; negative
mutagenic call (Test System: AMES SALMONELLA TYPHIMURIUM, Strain/Indicator: TA1537, Metabolic Activation: RAT, LIVER, S-9, SODIUM PHENOBARBITAL AND 5,6-BENZOFLAVONE): inactive; negative
mutagenic call (Test System: E. COLI, Strain/Indicator: WP2 UVRA, Metabolic Activation: NONE): inactive; negative
mutagenic call (Test System: E. COLI, Strain/Indicator: WP2 UVRA, Metabolic Activation: RAT, LIVER, S-9, SODIUM PHENOBARBITAL AND 5,6-BENZOFLAVONE): inactive; negative

O=C([O-])[C@H](O)[C@@H](O)[C@H](O)[C@H](O)CO.O=C([O-])[C@H](O)[C@@H](O)[C@H](O)[C@H](O)CO.[Cu+2]
mutagenic call (Test System: AMES SALMONELLA TYPHIMURIUM, Strain/Indicator: TA97, Metabolic Activation: NONE, Method: PREINCUBATION): inactive; negative
mutagenic call (Test System: AMES SALMONELLA TYPHIMURIUM, Strain/Indicator: TA97, Metabolic Activation: S-9, Method: PREINCUBATION): inactive; negative
mutagenic call (Test System: AMES SALMONELLA TYPHIMURIUM, Strain/Indicator: TA102, Metabolic Activation: NONE, Method: PREINCUBATION): inactive; negative
mutagenic call (Test System: AMES SALMONELLA TYPHIMURIUM, Strain/Indicator: TA102, Metabolic Activation: S-9, Method: PREINCUBATION): inactive; negative
